In US8163702B2, “Treatment of melanoma” (SciClone Pharmaceuticals, Inc., priority 2006, dated 2012):
Where “and” joins values, the source holds several entries; their conditions need not be identical. Equal entries are not always repeated.

Assays:
murine B16 melanoma = experiment: Antitumor effect in murine B16 melanoma model, tumor size and tumor weight (Example 2); type: in vivo, C57BL/6 mice; conditions: for Tumor volumes (cm^3) on Day 15: Length × Width × Width/2; for Tumor measurements L / Tumor measurements W / Tumor volumes: DTIC 50 mg/kg
Procedure: As per aseptic tissue culture procedures, one vial of B16 melanoma cells (supplied by Cell Culture Center of CAMS) was thawed and centrifuged at 1000 rpm, 20-25° C. for 5 minutes. The cell pellets were suspended in 0.1-0.5 mL normal saline (NS) and subcutaneously injected into the right axilla of each mouse (approximately 1×10^6 cells/mouse). When the tumor diameter was 1 cm approximately (measured by vernier caliper), the animals were euthanized with CO2 asphyxiation and the tumor was excised. Tumor cells were suspended in normal saline as previously described and the cell adaptation cycle was repeated once.
On Day 0, 1×10^6 B16 cells in a volume of 0.1 mL normal saline were subcutaneously injected into the right axillary area of the mouse. The day of tumor inoculation was defined as Day 0.
Dosing was initiated on Day 1.
Observations were recorded daily for mortality and moribundity. […] The tumors were excised, separated, and weighed.
Tumor volume was calculated using the following formula: Tumor Volume=Length×Width×Width/2 Tumor volume inhibition rate (IR) was calculated according to the formula: IR(TV)=(TVvehicle−TVdrug treated)/TVvehicle×100% TV is the tumor volume on the day of measurement.
The antitumor effect of the test article was also evaluated by tumor weight. The tumor weight of each mouse was recorded after euthanasia, and the inhibition rate of tumor weight was calculated according to the formula: IR(TW)=(Tumor weightvehicle−Tumor weightdrug treated)/Tumor weightvehicle×100%

B16 melanoma = B16 melanoma tumor growth, tumor weight and survival in C57/Bl6 mice, i.p. treatment (Example 1); type: in vivo; conditions: DTIC 50 mg/kg i.p.
Procedure: Tumors were induced by injecting 1×10^6 B16 melanoma cells subcutaneously in the hind leg of C57/Bl6 syngeneic mice. Mice were randomized into 5 groups of 10 animals and treated with SCV-07 at doses of 0.001, 0.01, or 0.10 mg/kg administered daily i.p. for 3 consecutive days for 2 weeks, starting 3 days after tumor implantation. Control groups were treated with saline or dacarbazine (DTIC) at a dose of 50 mg/kg i.p. for 3 days. Tumor growth was assessed every 3 days by a caliper and tumor weight was measured upon death.
Mice were injected with B16 melanoma cells and divided into 5 groups of 10 mice each. Control mice were given injections of saline or dacarbazine (DTIC). The effects of different doses of SCV-07 were examined with respect to tumor growth rate and survival time.

[1] = DTIC 50 mg/kg (Group 2), Day 15, individual animals F1-F5, M1-M5

SMILES: CN(C)/N=N/c1[nH]cnc1C(N)=O [DTIC, Dacarbazine, reference compound]
- Tumor volumes (cm^3) on Day 15 (murine B16 melanoma; DTIC 50 mg/kg (Group 2), Day 15, individual animals F1-F5, M1-M5, female animals): 0.36 cm^3 and 0.15 cm^3 and 0.11 cm^3 and 0.01 cm^3
- Tumor volumes (cm^3) on Day 15 (murine B16 melanoma; DTIC 50 mg/kg (Group 2), Day 15, individual animals F1-F5, M1-M5, male animals): 0.03 cm^3 (2×) and 0.06 cm^3 and 0.17 cm^3 and 0.01 cm^3
- Tumor measurements (cm) on Day 15, L (murine B16 melanoma; [1]): 0.3 cm (2×) and 0.4 cm (2×) and 0.7 cm and 0.9 cm and 0.5 cm and 1.2 cm and 0.6 cm
- Tumor measurements (cm) on Day 15, W (murine B16 melanoma; [1]): 0.3 cm (2×) and 0.4 cm (2×) and 0.7 cm and 0.5 cm (2×) and 0.9 cm and 0.6 cm
- Tumor weights (g) on Day 17 (murine B16 melanoma; DTIC 50 mg/kg (Group 2), Day 17, individual animals F1-F5, M1-M5, female animals): 0.70 g and 0.29 g and 0.98 g and 0.78 g and 0.5 g
- Tumor weights (g) on Day 17 (murine B16 melanoma; DTIC 50 mg/kg (Group 2), Day 17, individual animals F1-F5, M1-M5, male animals): 0.46 g and 0.54 g and 0.37 g and 0.915 g and 0.18 g
- Tumor Volume (Mean ± SD) (murine B16 melanoma; Day 3, DTIC 50 mg/kg/day, not measurable defined as 0): 0 cm^3
- Tumor Volume (Mean ± SD) (murine B16 melanoma; Day 6, DTIC 50 mg/kg/day, not measurable defined as 0): 0 cm^3
- IR (tumor volume inhibition rate) (murine B16 melanoma; Day 9, DTIC 50 mg/kg/day): 96.9%
- Tumor Volume (Mean ± SD) (murine B16 melanoma; Day 9, DTIC 50 mg/kg/day): 0.001 ± 0.004 cm^3
- Tumor measurements L (murine B16 melanoma; Day 9, mouse F2): 0.3 cm
- Tumor measurements W (murine B16 melanoma; Day 9, mouse F2): 0.3 cm
- Tumor volumes (murine B16 melanoma; Day 9, mouse F2): 0.01 cm^3
- IR (tumor volume inhibition rate) (murine B16 melanoma; Day 12, DTIC 50 mg/kg/day): 98.8%
- Tumor Volume (Mean ± SD) (murine B16 melanoma; Day 12, DTIC 50 mg/kg/day): 0.009 ± 0.020 cm^3
- Tumor measurements L (murine B16 melanoma; Day 12, mouse F1): 0.3 cm
- Tumor measurements W (murine B16 melanoma; Day 12, mouse F1): 0.3 cm
- Tumor volumes (murine B16 melanoma; Day 12, mouse F1): 0.01 cm^3
- Tumor measurements L (murine B16 melanoma; Day 12, mouse F3): 0.1 cm
- Tumor measurements W (murine B16 melanoma; Day 12, mouse F3): 0.1 cm
- Tumor volumes (murine B16 melanoma; Day 12, mouse F3): 5E−04 cm^3
- Tumor measurements L (murine B16 melanoma; Day 12, mouse F4): 0.3 cm
- Tumor measurements W (murine B16 melanoma; Day 12, mouse F4): 0.3 cm
- Tumor volumes (murine B16 melanoma; Day 12, mouse F4): 0.01 cm^3
- Tumor measurements L (murine B16 melanoma; Day 12, mouse F5): 0.1 cm
- Tumor measurements W (murine B16 melanoma; Day 12, mouse F5): 0.1 cm
- Tumor volumes (murine B16 melanoma; Day 12, mouse F5): 5E−04 cm^3
- Tumor measurements L (murine B16 melanoma; Day 12, mouse M2): 0.5 cm
- Tumor measurements W (murine B16 melanoma; Day 12, mouse M2): 0.5 cm
- Tumor volumes (murine B16 melanoma; Day 12, mouse M2): 0.06 cm^3
- IR (tumor volume inhibition rate) (murine B16 melanoma; Day 15, DTIC 50 mg/kg/day): 95.1%
- Tumor Volume (Mean ± SD) (murine B16 melanoma; Day 15, DTIC 50 mg/kg/day): 0.095 ± 0.112 cm^3
- IR (inhibition rate of tumor weight) (murine B16 melanoma; Day 17, DTIC 50 mg/kg/day): 85.0%
- Tumor Weight (Mean ± SD) (murine B16 melanoma; Day 17, DTIC 50 mg/kg/day): 0.57 ± 0.27 g
- MEAN TUMOR VOLUME (B16 melanoma; DAY 10 after tumor inoculation): 480 ± 13 mm^3
- MEAN TUMOR VOLUME (B16 melanoma; DAY 17 after tumor inoculation): 545 ± 170 mm^3
- DAY 24 % of control (inhibition in tumor growth) (B16 melanoma; DAY 24): 19%
- MEAN TUMOR VOLUME (B16 melanoma; DAY 24 after tumor inoculation): 760 ± 220 mm^3
- mean tumor weight lower (B16 melanoma): 15%
